Where “and” joins values, the source holds several entries; their conditions need not be identical. Identical values can stand only once.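 Cells were grown in 96-well plates and exposed to each compound for 48 hours at five concentrations; endpoints were interpolated linearly between bracketing concentrations, or set to the highest concentration if not reached. The concentration for 50% growth inhibition is given as GI50. TGI denotes the concentration required for complete inhibition of growth.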
What was measured:
Experiment in all cases: inhibition of tumour cell growth, NCI panel, 48 h
[1] = system: A549 NSCLC
[2] = system: COLO 205 colon
[3] = system: KM12 colon
[4] = system: M14 melanoma
[5] = system: NCI-H460 lung
[6] = system: OVCAR-3 ovarian
[7] = system: SF-539 CNS
[8] = system: U251 CNS
[9] = system: UACC-257 melanoma
[10] = system: UO-31 renal

SMILES	GI50 [1]	TGI [1]	GI50 [2]	TGI [2]	GI50 [3]	TGI [3]	GI50 [4]	TGI [4]	GI50 [5]	TGI [5]	GI50 [6]	TGI [6]	GI50 [7]	TGI [7]	GI50 [8]	TGI [8]	GI50 [9]	TGI [9]	GI50 [10]	TGI [10]
COC(=O)/C=C/c1cc(OC(C)=O)c2c(c1)C(C(=O)OC)C(c1ccc(OC(C)=O)c(OC(C)=O)c1)O2 (stereo not given)	1.35 µM	> 56.7 µM	3.43 µM	> 50.6 µM	0.334 µM	32.1 µM	0.0411 µM	15.1 µM	1.03 µM	13.6 µM	0.0374 µM	15.8 µM	0.0674 µM	2.41 µM	0.11 µM	> 50.9 µM	13.7 µM	> 77.6 µM	0.99 µM	> 72.3 µM
COc1cc2c3c(n(C)c(=O)c2cc1OC)-c1cc2c(cc1C3=O)OCO2		> 100 µM		> 100 µM		> 100 µM		> 100 µM		> 100 µM		> 100 µM		23.9 µM		> 100 µM		> 100 µM		> 100 µM
CNc1cc2oc(=O)cc(C)c2cc1C		> 100 µM		> 100 µM				> 100 µM		> 100 µM		> 100 µM		> 100 µM		> 100 µM		> 100 µM		
COc1ccc(-c2c(C#N)c(N3CCOCC3)nc3[nH]c(=S)[nH]c(=S)c23)cc1OC	> 100 µM	> 100 µM	66.8 µM	> 100 µM	29.1 µM	> 100 µM	81.6 µM	> 100 µM	27.7 µM	> 100 µM	34.6 µM	> 100 µM	39.1 µM	> 100 µM	46.5 µM	> 100 µM	> 100 µM	> 100 µM	82.1 µM	> 100 µM
CCCCCCn1c(-c2ccc(C(=O)O/N=C(\N)c3ccc4c(c3)OCO4)cc2)nc(-c2ccccc2)c1-c1ccccc1	1.41 µM	3.68 µM	2.15 µM	5.37 µM	3.9 µM	> 100 µM	3.75 µM	22.1 µM	2.08 µM	4.57 µM	2.48 µM	7.87 µM	1.72 µM	3.2 µM	1.74 µM	3.81 µM	10.5 µM	43.2 µM	1.28 µM	2.59 µM
CC(C)C1CN(C(=O)OCc2ccccc2)C2N1C(=O)C2(C)OCc1ccccc1 (stereo not given)		> 100 µM		37.2 µM				> 100 µM		> 100 µM		> 100 µM		> 100 µM		> 100 µM		96.9 µM		68.8 µM
CO[C@@H]1CC[C@]2(C)OC[C@H](C)[C@@H]3C[C@@H](C)[C@@H](OC(C)=O)[C@@H]4[C@H]3[C@@H]2O[C@H]4C[C@@]1(C)O	> 100 µM	> 100 µM	> 100 µM	> 100 µM	> 100 µM	> 100 µM			> 100 µM	> 100 µM	78.1 µM	> 100 µM	> 100 µM	> 100 µM	> 100 µM	> 100 µM	> 100 µM	> 100 µM	> 100 µM	> 100 µM
NC(=O)c1cc(I)ccc1NC(=O)/C=C/c1ccccc1	1.33 µM	> 100 µM	0.318 µM	1.24 µM	0.41 µM	> 37.4 µM	0.389 µM	> 100 µM	0.417 µM	3.44 µM	0.32 µM	1.01 µM	0.36 µM	1.53 µM	0.504 µM	14.6 µM	14.3 µM	53.3 µM	1.77 µM	> 48.9 µM
Nc1nc(Cl)nc2c1ncn2C1CC(O)C(CO)O1 (stereo not given)		> 100 µM		> 100 µM		> 100 µM	0.186 µM	0.509 µM		> 100 µM		> 100 µM		76.8 µM		> 96.5 µM		40.4 µM		8.76 µM
CN(C)CCNC(=O)Cc1ccccc1Nc1c(Cl)cccc1Cl		36 µM		30.6 µM		35.7 µM		33.9 µM		24.7 µM		36.1 µM		31.5 µM		23.6 µM		29.1 µM		25.6 µM
CC12c3ccccc3C(OC=O)(c3ccccc31)C1(C)c3ccccc3C2(OC=O)c2ccccc21		> 100 µM		> 100 µM		> 100 µM		> 100 µM		> 100 µM		> 100 µM				> 100 µM		> 100 µM		> 100 µM
O=C1c2cccc3cccc(c23)C(=O)N1CCN(CCO)CCO		70.7 µM		30.2 µM		> 100 µM		46.8 µM		69.9 µM		> 100 µM		86.5 µM		> 100 µM		54 µM		> 100 µM
CCCCCCCCCCCC[N+]12CC[N+](CCN)(CC1)CC2		> 100 µM		> 100 µM		62.7 µM		> 100 µM		> 100 µM		> 100 µM		> 100 µM		> 100 µM		> 100 µM		> 100 µM
C=C(CN(C)Cc1ccccc1)c1ccc(NC(=O)c2ccc(C(=C)CN(C)Cc3ccccc3)cc2)cc1	77.8 µM	> 100 µM	> 100 µM	> 100 µM	> 100 µM	> 100 µM	> 100 µM	> 100 µM	97.3 µM	> 100 µM	> 100 µM	> 100 µM	68.8 µM	> 100 µM	20.7 µM	45.7 µM	> 100 µM	> 100 µM	76.2 µM	> 100 µM
COCOCCC#CCO		> 100 µM				> 100 µM		> 100 µM		> 100 µM		> 100 µM		> 100 µM		> 100 µM		> 100 µM		> 100 µM
CCC(C)(C)n1c(C)nc2c1C(=O)c1ccccc1C2=O		> 100 µM		46.2 µM		> 100 µM		> 100 µM		29 µM		> 100 µM		> 100 µM		> 100 µM		84.4 µM		90.7 µM
O=[N+]([O-])c1cccnc1N=Nc1c(O)[nH]c2ccccc12		47.7 µM				25.6 µM		58.1 µM		35.9 µM		> 100 µM		12.7 µM		> 100 µM		44.6 µM		81.2 µM
Cc1cc(C)nc(NS(=O)(=O)c2ccc(Nc3c4ccccc4nc4c(C(=O)N5CCN(CCO)CC5)cccc34)cc2)n1		> 100 µM		> 100 µM		> 100 µM		> 100 µM		> 100 µM		> 100 µM		> 100 µM		> 100 µM		> 100 µM		> 100 µM

SMILES	GI50 [1]	TGI [1]	GI50 [2]	TGI [2]	GI50 [3]	TGI [3]	GI50 [4]	TGI [4]	GI50 [5]	TGI [5]	GI50 [6]	TGI [6]	GI50 [7]	TGI [7]	GI50 [8]	TGI [8]	GI50 [9]	TGI [9]	GI50 [10]	TGI [10]
NC(=S)N/N=C/c1ncccc1O	3.39 µM	> 59.4 µM and 31.3 µM	3.48 µM	> 431 µM	4.67 µM	> 1000 µM	0.684 µM	4.72 µM and 2.69 µM	3.17 µM	48.5 µM and 25.2 µM	2.77 µM	> 59.3 µM and 123 µM	0.567 µM and 0.242 µM	2.69 µM and 1.26 µM	3.35 µM	> 89.9 µM and 557 µM		8.97 µM and 72.7 µM	1.48 µM	> 33.8 µM and 6.46 µM
CCCCNCCCNCCCNC(=O)c1csc(-c2csc(CCNC(=O)C(NC(=O)C(C)C(O)C(C)NC(=O)C(NC(=O)c3nc(C(CC(N)=O)NCC(N)C(N)=O)nc(N)c3C)C(OC3OC(CO)C(O)C(O)C3OC3OC(CO)C(O)C(OC(N)=O)C3O)c3cnc[nH]3)C(C)O)n2)n1 (stereo not given)	1.13 µM	10.3 µM and 22.9 µM	26.6 µM	50 µM and > 89.1 µM	> 50 µM	> 100 µM	34.3 µM	50 µM and 15.9 µM	0.0396 µM	5.22 µM and 13 µM	30.3 µM	50 µM and 22.9 µM	0.0449 µM	0.357 µM and 0.235 µM	0.807 µM	50 µM and 8.07 µM	0.106 µM			15.8 µM and 3.81 µM
COc1c2occc2c(N)c2ccc(=O)oc12		> 100 µM		> 100 µM		> 100 µM		> 100 µM		> 100 µM		> 100 µM		> 100 µM		> 100 µM		> 100 µM		> 100 µM
COc1c(C)c(OCC=C(C)C)cc(CO)c1CO		> 100 µM		> 100 µM		> 100 µM		> 100 µM		> 100 µM				> 100 µM		> 100 µM		> 100 µM		
COc1ccc(NC(=O)CSc2nnc(-c3ccc(NC(C)=O)cc3)o2)cc1		45.3 µM		36.8 µM		30 µM		33.8 µM		34 µM		35.5 µM				33.7 µM		41.7 µM		33 µM
CC(=O)N/C(=C\c1ccccc1/C=C(\NC(C)=O)c1nc2cc(C)c(C)cc2[nH]1)c1nc2cc(C)c(C)cc2[nH]1		> 100 µM		> 100 µM		> 100 µM		23.9 µM		97.9 µM		35.7 µM		44.3 µM		> 100 µM				12.5 µM
CNc1nc(N)nc(Nc2ccc(I)cc2)c1N=O		> 100 µM		> 100 µM		> 100 µM				> 100 µM		> 100 µM		> 100 µM				> 100 µM		> 100 µM
C[N+](C)(C)CC(=O)N/N=C(/Cc1cc(=O)oc2cc(O)ccc12)C(=O)Nc1ccc(Cl)cc1		> 100 µM		> 100 µM		> 100 µM		> 100 µM		> 100 µM		> 100 µM		> 100 µM				> 100 µM		> 100 µM
CCOc1ccc(NC(=O)CC2SC(=Nc3ccc(C)cc3C)NC2=O)cc1 (stereo not given)		> 100 µM						> 100 µM		> 100 µM		> 100 µM		63.7 µM		> 100 µM		> 100 µM		> 100 µM
O=S(=O)(OI(OI(OS(=O)(=O)C(F)(F)F)c1ccccc1)c1ccccc1)C(F)(F)F		> 100 µM		> 100 µM		> 100 µM		> 100 µM		> 100 µM		> 100 µM		> 100 µM		> 100 µM				> 100 µM
O=c1[nH]c(=O)n(C2CC(O)C(CO)O2)cc1OS(=O)(=O)C(F)(F)F (stereo not given)		> 100 µM		> 100 µM		> 100 µM		> 100 µM		> 100 µM		> 100 µM		> 100 µM		> 100 µM				
COc1cccc2c1O/C(=C\c1ccc([N+](=O)[O-])s1)C2=O	3.29 µM	> 100 µM	5.15 µM	> 100 µM			3.06 µM	> 100 µM	4.34 µM	> 100 µM	1.94 µM	4.53 µM	3.08 µM	> 100 µM	2.42 µM	> 20.3 µM	> 100 µM	> 100 µM	1.08 µM	3.9 µM
c1ccc2c(c1)CCc1c(-c3ccncc3)n[nH]c1-2		> 100 µM		63.3 µM		55.7 µM		47.9 µM		> 100 µM		33.3 µM		> 100 µM		57.8 µM		57.7 µM		
CCCN(CCC)c1c([N+](=O)[O-])cc(C(=O)N(CC)CC)cc1[N+](=O)[O-]		38.1 µM		32.7 µM				79.5 µM		60.2 µM		33.3 µM		58.3 µM		32.7 µM		43.3 µM		63.1 µM
CCOC(=O)C(Br)=C1OC(=O)c2ccccc2-c2ccccc21 (mixture of isomers)		> 100 µM		32.9 µM		34.9 µM		37.1 µM				35.9 µM		46.8 µM		59.4 µM		48 µM		> 100 µM
CCCCCCCCc1cc2c(O)c(c1)Cc1cc(CCCCCCCC)cc(c1O)Cc1cc(CCCCCCCC)cc(c1O)Cc1cc(CCCCCCCC)cc(c1O)Cc1cc(CCCCCCCC)cc(c1O)Cc1cc(CCCCCCCC)cc(c1O)C2		> 100 µM		> 100 µM		> 100 µM				> 100 µM				> 100 µM		> 100 µM		> 100 µM		> 100 µM
FC(F)(F)c1ccc2nc(NCc3ccccc3)c(-c3ccccc3)nc2c1		> 100 µM		> 100 µM						> 100 µM		> 100 µM		> 100 µM		86.8 µM		> 100 µM		92.9 µM
CNCCCNc1ccnc2cc(Cl)ccc12			12.6 µM	27.4 µM	19.4 µM	67.6 µM	16 µM	34.4 µM	17.9 µM	37.8 µM	27.6 µM	95.5 µM	17 µM	33.1 µM	22.5 µM	62.4 µM			12.8 µM	47.7 µM
